Laboratory results as given in patent US6214615A (The United States of America as represented by the …, priority 1996, dated 2001).

What was measured:
[1] = biological target: T1, human dopamine D2 receptor (Homo sapiens, UniProt P14416); conditions: 0.7 nM ^3 H-raclopride; transfected COS-7 cells
Method: Expression and Transfection. […] COS-7 cells were plated at a density of 1×10^6 cells/10 cm dish.
(§1) Radioligand binding. Cells were scraped 48-72 hours after transfection into 10 ml of PBS/10 cm dish and pelleted at 1000× g. Cells were resuspended in 10 mM Tris, 1 mM EDTA, 5 mM MgCl2 and homogenized with a polytron (Brinkman). A total particulate fraction was prepared by centrifugation at 45,000× g for 15 min. […] Reactions were initiated by addition of 0.4 ml of tissue in binding buffer to 0.1 ml of drugs. […] Reactions were terminated by filtering membranes through Whatman GFC filters using a cell harvester (Brandel). Data were analyzed by nonlinear regression on a VAX II computer using the program DATAPLOT (distributed by the National Technical Information Service).

[2] = biological target: T1, human dopamine D2 receptor; assay: Saturation radioligand binding to membranes of transfected COS-7 cells; set-up: rescreened with the S1 probe alone to identify those most likely to be full length; expressed in transfected cells; host or cells: COS-7 cells (transient, 16A-pCD-PS DNA)
Method: COS-7 cells were plated at a density of 1×10^6 cells/10 cm dish. One to two days after plating, cells were transfected with 16A-pCD-PS DNA using a modification of the calcium phosphate precipitation procedure.
as §1

T1 sequence (P14416 1-414 isoform P14416-2): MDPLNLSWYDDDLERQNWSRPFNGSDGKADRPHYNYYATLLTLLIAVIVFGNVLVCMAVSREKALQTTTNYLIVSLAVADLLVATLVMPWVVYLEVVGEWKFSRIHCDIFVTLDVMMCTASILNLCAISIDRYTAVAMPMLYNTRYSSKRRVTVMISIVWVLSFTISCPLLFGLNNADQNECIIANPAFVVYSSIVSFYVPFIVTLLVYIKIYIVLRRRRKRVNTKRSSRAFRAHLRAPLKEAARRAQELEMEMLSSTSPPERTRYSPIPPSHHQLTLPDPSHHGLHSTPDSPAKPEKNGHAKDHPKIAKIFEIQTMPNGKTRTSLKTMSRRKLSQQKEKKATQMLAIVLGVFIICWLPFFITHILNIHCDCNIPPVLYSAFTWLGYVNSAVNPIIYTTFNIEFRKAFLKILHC

Row | n (hill number) [1] | Molecule | further results
1 | 1.0 ± 0.1 | CCN1CCC[C@@H]1CNC(=O)c1cc(S(N)(=O)=O)ccc1OC [(+)sulphride] | –
2 | 1.2 ± 0.2 | CCN1CCC[C@H]1CNC(=O)c1cc(S(N)(=O)=O)ccc1OC [(-)sulphride] | –
3 | – | CCN1CCC[C@H]1CNC(=O)c1c(O)c(Cl)cc(Cl)c1OC [^3 H-raclopride] | maximum number of binding sites ([2]; COS-7 transfected with 16A-pCD-PS): 800±110 fmole/mg protein
4 | 1.0 ± 0.1 | CN1CCc2cccc3c2[C@H]1Cc1ccc(O)c(O)c1-3 [apomorphine] | –
5 | – | ^3 H-SCH23396 | displacable binding to transfected COS-7 cells ([2]; concentrations up to 5 nM, displaced by chlorpromazine): did not show significant displacable binding

Row | Molecule | n (hill number) [1] | further results
6 | CN(C)CCCN1c2ccccc2Sc2ccc(Cl)cc21 [chlorpromazine] | 0.9 ± 0.1 | –
7 | NCCc1ccc(O)c(O)c1 [dopamine] | 1.1 ± 0.1 | –
